The record followed here is patent US20140228407A1, “TETRA-PYRIDINE COMPOUNDS AND COMPOSITION FOR PROTECTING CELLS, TISSUES AND ORGANS AGAINST ISCHEMIA-REPERFUSION INJURY” (YISSUM RESEARCH DEVELOPMENT COMPANY OF THE HEBREW …, priority 2011, published 2014).

For this assay, the system named is PC12 cells. Kind of assay: PC12 ischemic model (oxygen and glucose deprivation), cell death by LDH measurement. In kind it is cell-based. Particulars: for protection percentile: protection from cell death, FIG. 6B: identical for both compounds. The method, then: PC12 cells were grown in 25 cm^2 flasks in Dulbecco's modified Eagles Medium (DMEM), supplemented with 7% fetal bovine serum (FBS), 7% horse serum, […] penicillin and 100 μg/ml streptomycin. Cells were grown in humidified incubator 5% CO2, 95% air at 37° C. The medium was replaced every 2 days, and upon 70% confluence, the cells were counted and seeded for the ischemia experiments.
Approximately 1×10^6 PC12 cells/well were cultured and exposed to ischemia (oxygen and glucose deprivation=OGD) for 4.5 hr. Prior to the exposure, the growth medium was replaced with glucose-free DMEM (1 ml/well). Ischemia was performed in a closed chamber by replacement of air with 95% nitrogen/5% CO2.
Ischemic stress injury was characterized by lactate dehydrogenase (LDH) released from cells. After 4.5 hr of ischemia, a 50 μl sample of supernatant was taken from each well for LDH measurement. At the end of the ischemic insult (after 4.5 hr), glucose (at final concentration of 4.5 g/L by adding 10 μl from stock solution of 450 mg/ml per well (1 ml)) was added to the plates which underwent ischemia. The plates were then transferred to a humidified incubator and exposed to 95% air/5% CO2 at 37° C. for additional 18 hr of reoxygenation. DMEM supernatant samples (25 μl/well) were collected from each well for LDH measurements. The samples were centrifuged at 3500 rpm for 5 min, and 5 μl aliquots of supernatant was taken for LDH measurement.
For every experiment, a duplicate plate was prepared as a control study under normoxia. Cells were kept in a humidified incubator (5% CO2 and 95% air at 37° C.) in cell culture complete medium at a volume of 1 ml for 18 hr, and the same compounds were added with the same concentrations. Supernatant was collected for LDH measurement as indicated in the LDH activity measurement section below. Afterwards (at the end of the reoxygenation phase), the plates were frozen (at −70° C. for 30 min) and thawed once. 25 μl/well sample was collected and the samples were centrifuged at 3500 rpm for 5 min and then taken for LDH measurement (total).
LDH activity was determined using LDH-L kit (Pointe Scientific Inc., Michigan, USA) in the PC12 cell medium. Medium samples (5 μl) were collected at the end of the ischemic insult (after 4.5 hr) and after the reoxygenation period. In parallel, samples from the plates exposed to normoxia were collected. LDH enzymatic activity was measured in a spectrophotometer at a wavelength of 340 nm at 37° C. Data analysis was performed as follows: [OD (cycle 3)−OD (cycle 1)experiment]−[OD(3)−OD(1) control])/[OD(3)−OD(1) total]×100, and presented as percentage of total cell death.
One day before the experiment, 12-well plates were coated with 200 μg/ml type I rat tail collagen (BD Biosciences, Bedford, Mass.) and were further sterilized under UV. 1×10^6 PC12 undifferentiated cells/well were seeded on the plates and allowed to adhere overnight under regular conditions (DMEM medium high glucose 4.5 mg/ml, 5% CO2 and 95% air at 37° C.). Each experiment included 4 plates, two for normoxia and two for ischemia which underwent the same following treatment for all 4 plates.
A half hour before the onset of the ischemic insult, the antioxidant Tempol (4-hydroxy-2,2,6,6-tetramethylpiperidine-1-oxyl) (Sigma, St. Louis, Mo.) at a concentration of 0.5 mM (10 μl/well taken from a 8.6 mg/ml stock solution) or TPEN at a concentration of 3 μM and 10 μM were added to the plates. Before the experiments, the medium was replaced with DMEM glucose free medium at 1 ml volume/well. TPEN or 10 μl Tempol were again added to the appropriate wells and was maintained throughout all experiments.
Thereafter, the plates were introduced into a device inducing ischemia atmosphere with 95% nitrogen and 5% CO2 for 4.5 hr. Oxygen level was monitored online by a digital oxygen monitor showing up to 1%. At the end of OGD, 25 μl from each well was collected into 0.5 ml tubes for the LDH assay. […]

For the molecule `Cc1ccc(CN(CCN(Cc2ccc(C)cn2)Cc2ccc(C)cn2)Cc2ccc(C)cn2)nc1` [Compound #6], the “effectiveness relative to TPEN on PC12 cell death, FIG. 5” value was found to be 2 fold (1 μM vs 1 μM TPEN) and 3 fold (3 μM vs TPEN at the same concentration). The “protection of PC12 cells against ischemia insult-induced cell death vs TPEN at same concentration, FIG. 4” value (1 μM vs 1 μM TPEN) is given as “significantly more potent then TPEN”. Besides, where the note is “1 μM vs 3 μM TPEN”, the “protection of PC12 cells against ischemia insult-induced cell death vs 3 μM TPEN, FIG. 4” value is recorded as “more effective than 3 μM TPEN”. The “effectiveness relative to the un-protected control group of cells, FIG. 5” value (3 μM) is reported as 4 fold. Further, the “protective effect on PC12 cell death, Compound #6 vs. Compound #4, FIG. 3” value (at similar concentrations (300 nM, 1 μM, 3 μM)) was “more effective than Compound #4”. Further, the “protection percentile: protection from cell death, FIG. 6B” value (first of two selected concentrations (not given)) turned out to be 29% and the “protection percentile: protection from cell death, FIG. 6B” value (second of two selected concentrations (not given)) is 63%. In addition, the “dose response function, attenuating cell death following ischemia-reperfusion, vs TPEN, FIG. 6A” value (selected concentrations) was “superior to the latter”.
